Consider 11 compounds from patent US20130085073A1, “CONTINUOUS EXTENSION AND DEBLOCKING IN REACTIONS FOR NUCLLEIC ACIDS SYNTHESIS AND SEQUENCING” (ILLUMINA CAMBRIDGE LIMITED, priority 2011, published 2013).

A value given as a limit tells only on which side of the number the result lay.

One data set relates to Pol 217. The experiment in a line: Pol 217 catalyzed primer extension: incorporation of blocked nucleotide analog into primer DNA (urea gel analysis). The data set is classed as biochemical. The conditions noted are these: for incorporation of phosphodiester blocked nucleotides by Pol 217: nucleotide 10 μM. The protocol:
Pol 217 (15 μg/ml) was incubated at 30° C. in Pol buffer (50 mM TRIS pH 7.5, 0.05% Tween 20, 6 mM MgSO4, 1 mM EDTA, 50 mM NaCl) with 20 nM DNA (P21 primer annealed to Diff template AG). A time zero aliquot was taken for each concentration and then pppT3′PO4(EO2 was added at 10, 5, 2 or 1 μM final concentration to start the reaction. Tubes are incubated at 30° C. and aliquots were taken at 0.33, 0.66, 1, 2, 5, and 15 mins from the 4 reaction tubes for quenching and 15% urea acrylamide gel analysis. 1 mM dNTPs were added to the remaining 4 reaction tubes and after a further 10 mins an aliquot was taken for gel analysis (chase).
Pol 217 was tested in Pol buffer at 55° C.
Incorporation of gamma hexynyl-pppT3′PO4Me2 was tested in Pol buffer at 65° C. with 10 μM nucleotide and 15 μg/mlpolymerase (Pol217 or Bst). A time zero sample was removed before initiation of the reaction with nucleotide and aliquots were quenched for gel analysis at 0.33, 0.66, 1, 2, 5 and 15 minutes.

In the next data set the target is T1, Klenow (Escherichia coli, UniProt P00582).
T1 construct: Bst, Vent exo- and Klenow polymerases were tested
T1 sequence (P00582 324-928): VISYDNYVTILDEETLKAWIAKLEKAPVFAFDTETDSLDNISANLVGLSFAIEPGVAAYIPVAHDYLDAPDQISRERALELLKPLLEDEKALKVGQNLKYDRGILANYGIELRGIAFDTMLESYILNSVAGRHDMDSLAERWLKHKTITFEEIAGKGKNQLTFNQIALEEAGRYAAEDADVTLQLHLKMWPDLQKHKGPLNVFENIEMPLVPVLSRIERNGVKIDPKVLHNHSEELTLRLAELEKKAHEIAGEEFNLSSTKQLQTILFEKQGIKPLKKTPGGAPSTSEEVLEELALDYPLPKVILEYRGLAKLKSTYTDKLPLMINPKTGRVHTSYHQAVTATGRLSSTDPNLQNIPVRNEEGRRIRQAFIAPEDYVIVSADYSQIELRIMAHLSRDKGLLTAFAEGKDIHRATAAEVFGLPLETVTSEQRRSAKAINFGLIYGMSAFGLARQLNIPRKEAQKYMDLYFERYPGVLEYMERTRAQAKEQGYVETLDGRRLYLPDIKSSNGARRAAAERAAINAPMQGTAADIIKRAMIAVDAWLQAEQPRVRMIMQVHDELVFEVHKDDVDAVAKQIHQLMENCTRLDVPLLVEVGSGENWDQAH
As to the kind of experiment: Klenow polymerase primer extension with blocked nucleotide analog (gel analysis). The data set is classed as biochemical. The conditions noted are these: conditions tested; chase lane showed active polymerase.

The next data set deals with E. coli EndoIV (Escherichia coli, UniProt P0A6C1). The conditions noted are these: for EndoIV removal of phosphotriester blocking moiety from primer DNA extended with the nucleotide: large quantities of E. coli EndoIV, 37° C. or 55° C., extended incubation times.
The next data set concerns the target T2, Bst (Geobacillus stearothermophilus, UniProt P52026).
T2 sequence (P52026 1-876): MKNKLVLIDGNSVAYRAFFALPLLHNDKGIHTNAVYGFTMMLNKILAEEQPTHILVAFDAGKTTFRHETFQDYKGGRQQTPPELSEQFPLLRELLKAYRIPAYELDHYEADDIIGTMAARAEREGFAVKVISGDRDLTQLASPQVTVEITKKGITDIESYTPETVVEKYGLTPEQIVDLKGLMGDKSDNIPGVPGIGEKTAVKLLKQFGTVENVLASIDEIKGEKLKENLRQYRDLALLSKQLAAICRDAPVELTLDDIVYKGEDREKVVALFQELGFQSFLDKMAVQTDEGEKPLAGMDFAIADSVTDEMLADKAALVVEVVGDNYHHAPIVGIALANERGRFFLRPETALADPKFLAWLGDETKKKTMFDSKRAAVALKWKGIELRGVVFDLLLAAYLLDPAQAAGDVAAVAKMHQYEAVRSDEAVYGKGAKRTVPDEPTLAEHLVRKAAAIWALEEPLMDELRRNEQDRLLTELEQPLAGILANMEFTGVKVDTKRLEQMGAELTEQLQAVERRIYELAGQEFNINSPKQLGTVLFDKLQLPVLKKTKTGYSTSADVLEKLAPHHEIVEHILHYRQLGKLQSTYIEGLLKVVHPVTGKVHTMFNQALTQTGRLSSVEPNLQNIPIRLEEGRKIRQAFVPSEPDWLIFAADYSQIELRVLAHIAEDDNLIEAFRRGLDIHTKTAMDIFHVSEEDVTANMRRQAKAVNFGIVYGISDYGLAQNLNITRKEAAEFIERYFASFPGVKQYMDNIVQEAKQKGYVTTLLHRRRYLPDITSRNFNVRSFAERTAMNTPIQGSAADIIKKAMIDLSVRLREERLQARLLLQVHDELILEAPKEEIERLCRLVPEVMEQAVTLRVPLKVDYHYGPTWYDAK
As to the kind of experiment: Bst polymerase primer extension with blocked nucleotide analog (gel analysis). The data set is classed as biochemical. The protocol: Incorporation of gamma hexynyl-pppT3′PO4Me2 was tested in Pol buffer at 65° C. with 10 μM nucleotide and 15 μg/mlpolymerase (Pol217 or Bst). A time zero sample was removed before initiation of the reaction with nucleotide and aliquots were quenched for gel analysis at 0.33, 0.66, 1, 2, 5 and 15 minutes. After 15 minutes, 5 μl of 100 μM dNTPs was added to the remaining reaction tubes (˜20 μl) and incubation continued for 10 mins before a chase aliquot was taken for gel analysis. Thus, for each polymerase there was a time course of 0, 0.33, 0.66, 1, 2, 5, 15 mins and chase shown from left to right across the gel in FIG. 13.

A further data set addresses Vent exo- (Thermococcus litoralis, UniProt P30317, D141A/DEL1082-1471/DEL495-1032/E143A). The experiment in a line: Vent exo- polymerase primer extension with blocked nucleotide analog (gel analysis). The data set is classed as biochemical. To be noted: conditions tested; chase lane showed active polymerase.
Data set [1] concerns Pol 217, E. coli Endo IV, Ada protein. As to the kind of experiment: Single pot multi-cycle extension with Pol 217, Ada protein and Endo IV (gel). The conditions noted are these: 37° C., 10 μM nucleotide. In kind it is biochemical. As for the experimental part: A tube was incubated at 37° C. containing Pol 217 (15 μg/ml-16.5 pmoles), E. coli Endo IV (10 U), Ada protein (1000 pmoles) in 100 μl of 50 mM TRIS pH 8.0, 1 mg/ml BSA, 50 mM NaCl, 10 mM MgSO4 with 2 pmoles of primer (21mer) annealed to 10 A template DNA. After a time zero aliquot was removed and quenched for gel analysis, the reaction was started by the addition of 10 μM pppT3′PO4MeBu. At time points of 10, 30, 60, 120 and 240 minutes an aliquot was removed and quenched for gel analysis. Negative controls are shown where one protein was left out of the mixture in turn. A positive control for incorporation is shown of 10 μM FFT.

A short description of data set [2]: Fluorescence emission of quencher/dye labelled nucleotide. The data set is classed as physicochemical. As for the experimental part: The fluorescence emission of an approx. 4 μM solution of the quencher/dye labelled nucleotide 22, a 4 μM solution of Atto532 dye and an equimolar mixture of Atto532 dye and quencher labelled nucleotide 21 (4 μM) were measured in 10 mM Tris buffer pH 8.0, between 500 nm and 700 nm (excitation wavelength: 532 nm) (FIG. 23). The fluorescence of the nucleotide 22 was approximately 1500-fold lower than that of the free dye in solution, and approximately 1100-fold lower than the equimolar solution of the free dye and the quencher labelled nucleotide 21.

A further data set has as its system Pol 427. As to the kind of experiment: Pol 427 catalyzed primer extension: incorporation of blocked nucleotide analog (gel analysis). In kind it is biochemical. The conditions noted are these: Pol buffer, 37° C., 1 h, Pol 427 30 μg/ml.
The target in another data set is Endonuclease IV (Escherichia coli, UniProt P0A6C1). The conditions noted are these: 0.1 mM nucleotide, 500 units/mL Endonuclease IV, 37° C., pH 7.9, up to 3 days. An excerpt: Aliquots were taken at set time points and analyzed by HPLC chromatography.
The mark [3] stands for this setting: approx. 4 μM, 10 mM Tris pH 8.0, excitation 532 nm.

Chain of Vent exo- (P30317 other isoform, or with tags, fused parts or gaps D141A/E143A/DEL495-1032/DEL1082-1471): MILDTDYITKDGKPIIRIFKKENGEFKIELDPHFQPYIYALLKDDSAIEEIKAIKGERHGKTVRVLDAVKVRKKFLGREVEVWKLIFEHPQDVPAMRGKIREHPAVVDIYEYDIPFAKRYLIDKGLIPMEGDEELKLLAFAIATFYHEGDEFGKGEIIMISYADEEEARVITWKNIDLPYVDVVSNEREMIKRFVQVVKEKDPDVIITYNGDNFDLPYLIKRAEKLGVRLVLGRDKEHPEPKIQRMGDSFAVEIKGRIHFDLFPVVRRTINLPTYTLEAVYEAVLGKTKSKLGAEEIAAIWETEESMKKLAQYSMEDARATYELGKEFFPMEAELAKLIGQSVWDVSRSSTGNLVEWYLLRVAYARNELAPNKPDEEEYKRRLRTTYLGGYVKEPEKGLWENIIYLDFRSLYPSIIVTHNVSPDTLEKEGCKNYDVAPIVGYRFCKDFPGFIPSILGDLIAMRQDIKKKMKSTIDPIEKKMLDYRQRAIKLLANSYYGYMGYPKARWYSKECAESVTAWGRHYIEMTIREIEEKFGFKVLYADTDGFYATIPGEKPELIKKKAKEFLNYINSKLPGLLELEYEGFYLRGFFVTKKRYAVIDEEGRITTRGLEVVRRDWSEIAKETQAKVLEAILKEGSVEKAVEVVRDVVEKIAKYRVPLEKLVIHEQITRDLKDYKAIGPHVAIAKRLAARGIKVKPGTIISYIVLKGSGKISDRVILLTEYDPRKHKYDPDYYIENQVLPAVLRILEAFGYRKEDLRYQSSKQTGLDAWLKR
Description for E. coli EndoIV: Primer DNA with either a 3′ PO4PrOH block (−ve and EndoIV) or a free 3′OH (+ve) was radiolabelled and bound to an A template strand. […] Aliquots were removed at 0, 5, 15, 30 and 60 min for quenching and gel analysis (left to right respectively). “+ve” is the time course for unblocked DNA plus EndoIV, “EndoIV” is blocked DNA plus E. coli EndoIV and “−ve” is blocked DNA without E. coli EndoIV.
Similar reactions to those described above in the context of FIG. 7 were conducted, but the blocked extension products were generated using Pol 217 to incorporate various phosphotriester nucleotides onto the primer DNA. […] Phosphotriester blocking moieties tested included pppT3′PO4(Et)2, pppT3′PO4(Et)(Pr-Cap), pppT3′PO4(Et)(PrOH), pppT3′PO4MeBu and pppT3′PO4(Et)(SSOH).
A ^33P biotinylated 10 A template hairpin (62mer) was bound to magnetic streptavidin beads (4 pmoles) (1) and incubated with Pol217 (15 μg/ml) in Pol buffer and 10 μM pppT3′PO4MeBu for 10 mins at 55° C. […] The DNA was then removed to a magnet and washed twice in 1×B+W buffer (5 mM TRIS pH 7.5, 0.5 mM EDTA, 1M NaCl) and then washed twice in Ada buffer (50 mM TRIS pH 8.3, 1 mM EDTA, 3 mM DTT, 1 mg/ml BSA). The DNA was then incubated in Ada buffer with Ada protein (225 pmoles) at 37° C. for 3 h (3). The DNA was then removed to a magnet and washed twice in 1×B+W and then twice in NEB 3 buffer and then divided into 2 aliquots. To one aliquot (4) (2 pmoles) was added Pol 217 (15 μg/ml), E. coli EndoIV 10 U and FFT (5 μM) in NEB 3 buffer to a total volume of 100 μl. The sample was incubated at 37° C. and at time points of 0, 3, 10, 30, 60 and 120 mins a 5 μl sample was removed and quenched for 12% gel analysis. After 120 mins 10 μl of 100 μM dNTP was added to the remaining sample to chase the primer to the end (if not blocked) and an aliquot was taken and quenched after a further 20 mins at 37° C. […] The second aliquot (2 pmoles) was treated similarly, but no E. coli Endo IV was added to the reaction mixture (w/o EndoIV).
Eight pmoles of biotinylated 10 A hairpin DNA (62mer) bound to magnetic streptavidin beads (1) was incubated with Pol 217 (15 μg/ml) in Pol buffer with 10 μM pppT3′PO4(Et)(SSOH) in 200 μl at 55° C. for 15 mins (2). Then 2 μl of 100 mM tri(hydroxylpropyl)phosphine (THP) was added to the tube and the samples incubated for a further 5 mins at 55° C. […] The DNA was then removed to a magnet and washed twice in 1×B+W and twice in NEB 3 buffer. The DNA was then divided into two aliquots. To the first aliquot (4 pmoles) was added 4 U E. coli EndoIV, 15 μg/ml Pol 217, 10 μM pppT3′PO4MeBu in 100 μl of NEB3 buffer (4) and the other aliquot (4 pmoles) had the same additions but no EndoIV (w/o EndoIV). At time points of 0, 1, 5, 10, 30, 60 and 120 mins and sample was removed and quenched for 12% gel analysis.

In the case of `CCOP(=O)(OCC)O[C@H]1C[C@H](n2cc(C)c(=O)[nH]c2=O)O[C@@H]1COP(=O)(O)OP(=O)(O)OP(=O)(O)O` [pppT3′PO4(Et)2, 5′-triphosphate 3′-(O,O′-diethyl phosphate) thymidine], the “extension of primer after chase with natural dNTPs (3′ block)” value with Pol 217 (30° C., 1 mM dNTPs chase, 10 mins) is on record as “creates a 3′ blocked primer”. The “incorporation into primer DNA by Pol 217 (n+1 band)” value in the data set on Pol 217 (30° C., Pol buffer, nucleotide 10, 5, 2 or 1 μM, 20 nM DNA, 0-15 min) is reported as “extension by one base”. In the data set with Pol 217 (65° C., incorporation buffer, 10 μM nucleotide), the “time to complete incorporation by Pol217” value is not above 20 s. Besides, on Klenow, the “incorporation by Klenow polymerase” value is “did not show any incorporation bands”. Moreover, the “EndoIV removal of phosphotriester blocking moiety from primer DNA extended with the nucleotide” value (shortened to “EndoIV removal”) on E. coli EndoIV is on record as “failed to allow subsequent incorporation”. Further, the “incorporation by Bst polymerase” value at Bst (conditions tested, chase lane showed active polymerase) is on record as “did not show any incorporation bands”. The “incorporation by Vent exo- polymerase” value at Vent exo- is on record as “did not show any incorporation bands”.

Take `Cc1cn(C2CC(OP(=O)(O)O)C(COP(=O)(O)OP(=O)(O)OP(=O)(O)O)O2)c(=O)[nH]c1=O` (stereo not drawn) [pppT 3′PO4]: the “incorporation of phosphodiester blocked nucleotides by Pol 217” value in the data set on Pol 217 (Pol buffer, 55° C.) is given as “incorporation was observed but the band on the gel chased away”.

As to `Cc1cn(C2CC(OP(=O)(O)OCCCO)C(COP(=O)(O)OP(=O)(O)OP(=O)(O)O)O2)c(=O)[nH]c1=O` (stereo not drawn) [pppT3′PO4PrOH], the “incorporation of phosphodiester blocked nucleotides by Pol 217” value in the data set on Pol 217 (Pol buffer, 55° C.) is “substantial incorporation was not observed”.

As to `CCOP(=O)(OCCCO)OC1CC(n2cc(C)c(=O)[nH]c2=O)OC1COP(=O)(O)OP(=O)(O)OP(=O)(O)O` (stereo not drawn) [pppT3′PO4(Et)(PrOH)], the “EndoIV removal” value on E. coli EndoIV is “failed to allow subsequent incorporation”.

`CCCCOP(=O)(OC)O[C@H]1C[C@H](n2cc(C)c(=O)[nH]c2=O)O[C@@H]1COP(=O)(O)OP(=O)(O)OP(=O)(O)O` (stereo partly drawn) [pppT3′PO4MeBu, 5′ triphosphate 3′ (O-methyl, O′-butyl phosphate) thymidine]: the “incorporation into 10 A hairpin DNA on streptavidin beads by Pol 217” value in the data set on Pol 217 (Pol buffer, 55° C., 10 μM nucleotide, 10-15 mins) was “converted to n+1”. Moreover, the “length of extension product in single pot reaction, all three proteins present” value in data set [1] (10-240 minutes) was “gradually increased over the time course from n+1 to n+2, then n+3, then n+4”. Besides, the “incorporation in single pot reaction in the absence of Ada or EndoIV” value in data set [1] (no Ada or no EndoIV) is “a single incorporation event occurred”. For the same compound, the “EndoIV unblocking of extended primer after Ada protein treatment” value at E. coli EndoIV (Ada protein 37° C. 3 h, then E. coli EndoIV 10 U, Pol 217, FFT, 37° C., 0-120 mins) is reported as “unblocked by EndoIV”. Moreover, the “EndoIV removal” value on E. coli EndoIV was “failed to allow subsequent incorporation”.

As for “5′-(γ-(BHQ2-peg3)triphosphate) 3′-(O-(12-aminododecyl)phosphate)thymidine [nucleotide 21]”, the “quenching of free Atto532 dye by quencher labelled nucleotide in equimolar mixture” value in data set [2] (4 μM each, 10 mM Tris pH 8.0, excitation 532 nm) is “does not quench efficiently”.

`CCOP(=O)(OCc1cc2c(cc1[N+](=O)[O-])OCO2)O[C@H]1C[C@H](n2cc(C)c(=O)[nH]c2=O)O[C@@H]1COP(=O)(O)OP(=O)(O)OP(=O)(O)O` (stereo partly drawn) [pppT3′PO4(Et)(NPIP), 5′-triphosphate 3′-(O-ethyl, O′-(6-nitropiperonyl)phosphate) thymidine]: in the data set with Pol 427, the “incorporation into primer by Pol 427” value is listed as “converted to n+1”.

Regarding “5′-(γ-(BHQ2-peg3)triphosphate) 3′-(O-(12-(Atto532)amidododecyl)phosphate)thymidine [nucleotide 22]”, in [2] (setting [3]), the “fluorescence lower than that of the free dye (Atto532) in solution” value was “approximately 1500 fold”; the “fluorescence lower than the equimolar solution of free dye and quencher labelled nucleotide 21” value is “approximately 1100 fold”. The “quenching of fluorescence emission by BHQ2” value in data set [2] (dye and quencher both on the nucleotide) was more than 99%.

Take `C#CCCCCOP(=O)(O)OP(=O)(O)OP(=O)(O)OCC1OC(n2cc(C)c(=O)[nH]c2=O)CC1OP(=O)(OC)OC` (stereo not drawn) [gamma hexynyl-pppT3′PO4Me2, 5′-(γ-(5-hexynyl)triphosphate) 3′-(O,O′-dimethyl phosphate) thymidine]: in the data set with Pol 217 (Pol buffer, 65° C., 10 μM nucleotide, 0-15 min then dNTP chase), the “incorporation by Pol 217 and chase” value is “an incorporation band of n+1 was generated over time which did not chase away”. On Bst (Pol buffer, 65° C., 10 μM nucleotide), the “band for extended primer with Bst” value is “absent”.

In the case of `CCOP(=O)(O)OC1CC(n2cc(C)c(=O)[nH]c2=O)OC1COP(=O)(O)O` (stereo not drawn) [pT-3′PO4Et, 5′ monophosphate T-3′PO4Et], the “removal of 3′ phosphodiester blocking moiety from free nucleotide by EndoIV (HPLC)” value at Endonuclease IV is on record as “No deblocked pT-3′PO4Et was observed even after 3 days”.

Regarding `CCOP(=O)(O)O[C@H]1C[C@H](n2cc(C)c(=O)[nH]c2=O)O[C@@H]1COP(=O)(O)OP(=O)(O)OP(=O)(O)O` [pppT3′PO4Et, 5′ triphosphate 3′ (O-ethyl phosphate) thymidine], the “incorporation of phosphodiester blocked nucleotides by Pol 217” value in the data set with Pol 217 (Pol buffer, 55° C.) is “low level incorporation was observed”.
